Reference: patent publication US20050153872A1, “Methods and compositions for the treatment of infection” (priority 2004, published 2005)
Values after ≈ are worked out from the molar mass of the structure shown. Like-named read-outs stand apart in the source and are kept apart here.

Assays:
[1] = test system: Staphylococcus aureus MRSA 02-18; assay: microbe, parasite or virus in culture; type: cell-based; settings: Staphylococcus aureus MRSA 02-18; read-out: MIC
[2] = test system: Staphylococcus aureus MRSA BAA-42; assay: microbe, parasite or virus in culture; type: cell-based; settings: Staphylococcus aureus MRSA BAA-42; read-out: MIC
[3] = test system: ATCC 700802 VRE cells; assay: Electron micrographs of bactericidal effects of Ph-EF; type: cell-based, Enterococcus; settings: Ph-EF 10 ug/ml 0.5 and 2 hr; Ph-SA 10 ug/ml 2 hr; vancomycin 20 ug/ml 2 hr
Experimental: Electron Microraphs of Bactericidal Effects of Ph-EF Against ATCC 700802 VRE Cells (1% Phosphotungstic Acid, 15.000×).
Bactericidal effects of ph-EF were tested and monitored by electron microscopy. FIG. 16 depicts electron micrographs of (a) untreated cells; (b) and (c) cells treated with Ph-EF (10 ug/ml) for 0.5 hr; (d) untreated cells for 2 hr; (e) cells treated by Ph-SA (10 ug/ml) for 2 hr; (f) cells treated with vancomycin (20 ug/ml) for 2 hr; (g) and (h) cells treated with Ph-EF (10 ug/ml) for 2 hrs.

[4] = test system: Vancomycin-resistant Enterococcus ATCC 700802; settings: for inhibition of VRE cell growth: 10 ug/ml, ATCC 700802
[5] = test system: Enterococcus faecalis ATCC 700802; assay: microbe, parasite or virus in culture; type: cell-based; settings: ATCC700802; Enterococcus faecalis ATCC 700802; read-out: MIC
[6] = test system: Acenetobactor (20); assay: In vitro antibacterial activity (MIC), clinical isolates; type: cell-based
Experimental: (§1) The following experiments were performed by Lab. of Pharmacology, National Sichuan antibiotic industril institute, Chengdu, Sichuan.
(§2) The following agents were used to test the in vitro activity of Ph-SA:
(§3) All the bacterial strains used in the experiments were clinical isolates collected from Sichuan and Beijing in 2002 and identified by West China Hospital, Sichuan University and Chongqing University of Medical Sciences with API system. The following strains were used in the experiments detailed below: Staphylococcus aureus 168 strains (MRSA 80 strains and MSSA 88 strains) Staphylococcus epidermidis 46 strains (MRSE 25 strains and MSSE 21 strains), Enterococcus 20 strains, and Acenetobactor 20 strains. Staphylococcus aureus ATCC25923, 29213 and BAA-42 were used as control strains. Bacterial strains were contacted with one of the above described compounds and MIC50, MIC90 and MICScope were determined.

[7] = test system: Staphylococcus epidermidis MSSE strain (21); assay: as above; type: cell-based; settings: Staphylococcus epidermidis, 21 MSSE clinical isolates
Experimental: as §1, §2, §3

[8] = test system: Staphylococcus epidermidis MRSE strain (25); assay: as above; type: cell-based; settings: Staphylococcus epidermidis, MRSE
Experimental: as §1, §2, §3

[9] = test system: Enterococcus (20); assay: as above; type: cell-based; settings: 20 Enterococcus clinical isolates
Experimental: as §1, §2, §3

[10] = test system: Staphylococcus aureus MRSA strain (80); assay: as above; type: cell-based; settings: Staphylococcus aureus, MRSA
Experimental: as §1, §2, §3

[11] = test system: Staphylococcus aureus MSSA strain (88); assay: as above; type: cell-based; settings: Staphylococcus aureus, 88 MSSA clinical isolates
Experimental: as §1, §2, §3

[12] = test system: Staphylococcus aureus ATCC 29213; assay: MIC against challenge strain (Table 3); type: cell-based; settings: ATCC29213, read-out: MIC
[13] = test system: ATCC 700802 VRE cells; assay: Ph-EF protection of ATCC 700802 infected mice; type: in vivo; settings: for Death distribution in hours 24 h / Death distribution in hours 48 h / Death distribution in hours 72 h / Death distribution in hours 96 h / Death distribution in hours 120 h / Death distribution in hours 144 h / Death distribution in hours 168 h / Number of Death: 5 animals
Experimental: To assess in vivo effects of Ph-EF, mice were injected with a fatal dosage of ATCC 700802 VRE cells intraperitoneally. […] Mice were inspected every 24 hours for 7-14 days. Dead mice would be counted as positive results.

[14] = test system: Escherichia coli 02-1-65; assay: MIC against challenge strain (Table 3); type: cell-based; settings: 02165, read-out: MIC
[15] = test system: Enterococcus faecalis ATCC 700802; assay: In vivo protection of infected mice; design: species or system Kungming mice; settings: Enterococcus faecalis
Experimental: (§4) The following experiments were performed by Pharmacology Lab, National Sichuan antibiotic industril institute, Chengdu, Sichuan.
(§5) The agents described above were diluted with sterilized water to final concentrations of 10 mg/L, 5 mg/Land 2.5 mg/L.
(§6) Staphylococcus aureus ATCC BAA-42(MRSA) and enterococcus faecalis ATCC 700802 were used as control strains.
(§7) 170 mice (Kungming mice: 18˜22 g, 85 males and 85 females) were randomly divided into four groups and injected with a fatal dosage of staphylococci, enterococcus and E. coli intraperitoneally. […] Mice were inspected every 24 hours for 7-14 days. Dead mice were counted as positive results. The results are depicted in Table 3 and FIGS. 4 and 5A-B.

[16] = test system: Staphylococcus aureus MRSA BAA-42; assay: In vivo protection of infected mice; design: species or system Kungming mice; settings: Staphylococcus aureus
Experimental: as §4, §5, §6, §7

[17] = test system: Staphylococcus aureus MRSA 02-18; assay: In vivo protection of infected mice; design: species or system Kungming mice; settings: Staphylococcus aureus, MRSA
Experimental: as §4, §5, §6, §7

[18] = test system: Escherichia coli 02-1-65; assay: In vivo protection of infected mice; design: species or system Kungming mice; settings: i.p. infection 3.3 × 10^5 cfu/ml, read-out: ED50
Experimental: as §4
(§8) The agents described above were diluted with sterilized water to final concentrations of 10 mg/L, 5 mg/Land 2.5 mg/L. […]
as §7

[19] = test system: Staphylococcus aureus ATCC 29213; assay: In vivo protection of infected mice; design: species or system Kungming mice; settings: Staphylococcus aureus, i.p. infection 3.6 × 10^5 cfu/ml, read-out: ED50
Experimental: as §4, §8, §7

[20] = test system: vancomycin-sensitive Enterococcus ATCC29212; settings: 3 ug/ml; ATCC 29212 cells

Molecule: CN[C@H](CC(C)C)C(=O)N[C@H]1C(=O)N[C@@H](CC(N)=O)C(=O)N[C@H]2C(=O)N[C@H]3C(=O)N[C@H](C(=O)N[C@H](C(=O)O)c4cc(O)cc(O)c4-c4cc3ccc4O)[C@H](O)c3ccc(c(Cl)c3)Oc3cc2cc(c3O[C@@H]2O[C@H](CO)[C@@H](O)[C@H](O)[C@H]2O[C@H]2C[C@](C)(N)[C@H](O)[C@H](C)O2)Oc2ccc(cc2Cl)[C@H]1O [Vancomycin]
- MIC [1]: 0.06 µg/mL (≈ 0.0414 µM)
- MIC [2]: 0.06 µg/mL (≈ 0.0414 µM)
- morphological alteration in VRE cells (electron micrographs) [3]: no morphological alteration
- inhibition of VRE cell growth [4]: only partially inhibited VRE cell growth
- MIC [5]: 16 µg/mL (≈ 11 µM)
- MIC50 [6]: > 128 µg/mL
- MIC90 [6]: > 128 µg/mL
- MIC [7]: 0.06 to 0.5 µg/mL (≈ 0.0414 to 0.345 µM)
- MIC50 ([7]; read-out: MIC50): 0.5 µg/mL (≈ 0.345 µM)
- MIC90 ([7]; read-out: MIC90): 0.5 µg/mL (≈ 0.345 µM)
- MIC50 [8]: 0.5 µg/mL (≈ 0.345 µM)
- MIC90 [8]: 1 µg/mL (≈ 0.69 µM)
- MIC ([8]; read-out: MIC Scope): 0.25 to 2 µg/mL (≈ 0.173 to 1.38 µM)
- MIC [9]: 0.5 to 50 µg/mL (≈ 0.345 to 34.5 µM)
- MIC50 ([9]; read-out: MIC50): 1 µg/mL (≈ 0.69 µM)
- MIC90 ([9]; read-out: MIC90): 2 µg/mL (≈ 1.38 µM)
- MIC50 [10]: 0.25 µg/mL (≈ 0.173 µM)
- MIC90 [10]: 1 µg/mL (≈ 0.69 µM)
- MIC ([10]; read-out: MIC Scope): 0.004 to 2 µg/mL (≈ 0.00276 to 1.38 µM)
- MIC50 ([11]; read-out: MIC50): 0.5 µg/mL (≈ 0.345 µM)
- MIC90 ([11]; read-out: MIC90): 1 µg/mL (≈ 0.69 µM)
- MIC ([11]; read-out: MIC Scope): 0.03 to 1 µg/mL (≈ 0.0207 to 0.69 µM)
- MIC [12]: 0.5 µg/mL (≈ 0.345 µM)
- Death distribution in hours 24 h ([13]; 5 mg/kg intravenously): 3
- Death distribution in hours 48 h ([13]; 5 mg/kg intravenously): 2
- Death distribution in hours 72 h ([13]; 5 mg/kg intravenously): 1
- Death distribution in hours 96 h ([13]; 5 mg/kg intravenously): 0
- Death distribution in hours 120 h ([13]; 5 mg/kg intravenously): 0
- Death distribution in hours 144 h ([13]; 5 mg/kg intravenously): 0
- Death distribution in hours 168 h ([13]; 5 mg/kg intravenously): 0
- Number of Death ([13]; 5 mg/kg intravenously): 3
- Death distribution in hours 24 h ([13]; 10 mg/kg intravenously): 1
- Death distribution in hours 48 h ([13]; 10 mg/kg intravenously): 1
- Death distribution in hours 72 h ([13]; 10 mg/kg intravenously): 0
- Death distribution in hours 96 h ([13]; 10 mg/kg intravenously): 0
- Death distribution in hours 120 h ([13]; 10 mg/kg intravenously): 0
- Death distribution in hours 144 h ([13]; 10 mg/kg intravenously): 0
- Death distribution in hours 168 h ([13]; 10 mg/kg intravenously): 0
- Number of Death ([13]; 10 mg/kg intravenously): 1
- MIC [14]: 128 µg/mL (≈ 88.3 µM)
- ED50 ([15]; ATCC700802): 2.64 mg/kg
- ED50 ([15]; ATCC700802, 1 h): 3.17 mg/kg
- ED50 [16]: 3.53 mg/kg
- ED50 ([16]; 1 h): 3.64 mg/kg
- ED50 [17]: 2.39 mg/kg
- ED50 ([17]; 1 h): 2.27 mg/kg
- ED50 ([18]; Escherichia coli, 02165, 2nd Time (value in parentheses), i.v. treatment): > 30.8 mg/kg
- ED50 ([18]; Escherichia coli, 02165, 1 h, 1st Time, i.v. treatment after one hour): > 30.8 mg/kg
- ED50 ([19]; ATCC29213, 2nd Time (value in parentheses), i.v. treatment): 2.09 mg/kg
- ED50 ([19]; ATCC29213, 1 h, 1st Time, i.v. treatment after one hour): 2.32 mg/kg

B1: Ph-EF: Colicin Ia linked to the N-terminus of the E. facaelis pheromone cCF10 (protein)
chain: SDPVARGITNPGAESLGYDSDGHEIMAVASPIYVASNPPRVASPVFHGTPPAWSSFGNKTIWGGNEWVASPDSPTRSDIEKRDKEITAYKNTLSAQQKENENKRTEAGKRLSAAIAAREKDENTLKTLRAGNADAADITRQEFRLLQAELREYGFRTEIAGYDALRLHTESRMLFADADSLRISPREARSLIEQAEKRQKDAQNADKKAADMLAEYERRKGILDTRLSELEKNGGAALAVLDAQQARLLGQQTRNDRAISEARNKLSSVTESLNTARNALTRAEQQLTQQKNTPDGKTIVSPEKFPGRSSTNHSIVVSGDPRFAGTIKITTSAVIDNRANLNYLLSHSGLDYKRNILNDRNPVVTEDVEGDKKIYNAEVALAEWDKLRQRLLDARNKITSAESAVASNSARNNLSARTNEQKHANDALNALLKEKENIRNQLSGINQKIAEEKRKQDELKATKDAINFTTEFLKSVSEKYGAKAEQLAREMAGQAKGKKIRNVEEALKTYEKYRADINKKINAKDRAAIAAALESVKLSDISSNLNRFSRGLGYAGKFTSLADWITEFGKAVARGTENWRPLFVKTETIIAGNAATALVALALVFSILTGSALGIIGYGLLMAVTGALIDESLVEKANKFWGILVTLVFV
modifications: Colicin Ia linked to E. facaelis pheromone cCF10
- morphological alteration in VRE cells (electron micrographs) [3]: substantial morphological alteration
- inhibition of VRE cell growth [4]: effectively inhibited VRE cell growth
- bactericidal effect relative to vancomycin on a molar basis ([4]; Ph-EF 70,000 daltons vs vancomycin 1456 daltons): almost one hundred times greater
- Death distribution in hours 24 h ([13]; 5 mg/kg intravenously): 0
- Death distribution in hours 48 h ([13]; 5 mg/kg intravenously): 1
- Death distribution in hours 72 h ([13]; 5 mg/kg intravenously): 0
- Death distribution in hours 96 h ([13]; 5 mg/kg intravenously): 0
- Death distribution in hours 120 h ([13]; 5 mg/kg intravenously): 0
- Death distribution in hours 144 h ([13]; 5 mg/kg intravenously): 0
- Death distribution in hours 168 h ([13]; 5 mg/kg intravenously): 0
- Number of Death ([13]; 5 mg/kg intravenously): 1
- Death distribution in hours 24 h ([13]; 10 mg/kg intravenously): 0
- Death distribution in hours 48 h ([13]; 10 mg/kg intravenously): 0
- Death distribution in hours 72 h ([13]; 10 mg/kg intravenously): 0
- Death distribution in hours 96 h ([13]; 10 mg/kg intravenously): 0
- Death distribution in hours 120 h ([13]; 10 mg/kg intravenously): 0
- Death distribution in hours 144 h ([13]; 10 mg/kg intravenously): 0
- Death distribution in hours 168 h ([13]; 10 mg/kg intravenously): 0
- Number of Death ([13]; 10 mg/kg intravenously): 0
- protection against infection in mice ([13]; ATCC 700802 VRE i.p., agent i.v.): effectively prevent Enterococcus infection in mice
- inhibition of cell growth [20]: inhibited cell growth
